According to PubChem BioAssay AID2060343 (Molecular Pharmacology Branch, DTP, NCI, 2025):
“And” between values parts separate entries of the source, which are not always exact repeats. Equal values may be shown once.

Tested on: 138582-337-R-J1-PDC spheroids with HUVEC/MSC, viability
Assay: Anticancer human tumor 138582-337-R-J1-PDC patient-derived Merkel cell tumor cell line growth inhibition [IpAb]
Settings: for viability, T/C: stronger effect = lower value
Excerpt: Combinatorial screen of targeted agents with ipatasertib and abemaciclib in multi-cell type tumor spheroids
A high-throughput screen of multi-cell type tumor spheroids was designed to identify active combinations of targeted small molecules and ipatasertib or abemaciclib. Complex spheroids include a stromal component modeled by human endothelial cells (HUVEC) and fibroblasts modeled by human mesenchymal stem cells (MSCs). The concentration ranges selected for each drug and investigational agent were based upon clinically achievable concentrations if the clinical Cmax of the agent was known.
Compounds. The drugs and investigational agents: ipatasertib (NSC767898), abemaciclib(NSC768073), selumetinib (NSC741078), trametinib (758246), adavosertib (NSC754352), everolimus (NSC733504), sapanisertib (NSC764658), vemurafenib (NSC761431), venetoclax (NSC766270), copanlisib (NSC809693), apelisib (NSC765974), palbociblib (NSC758247), vemurafenib (NSC761431), dabrafenib (NSC764134), ravoxertinib (NSC781343), BMS-387032 (NSC767048), sotorasib (NSC818433), talazoparib (NSC767125) and afursertib (NSC778305), were obtained from the National Cancer Institute (NCI) Developmental Therapeutics Program Chemical Repository. The FDA-approved anticancer drug set is available from the NCI Developmental Therapeutics Program. […] The stock solutions were prepared in dimethyl sulfoxide (DMSO, Sigma-Aldrich, St. Louis, MO, cat. D2650) at 800-fold the tested concentration and stored at -70 degrees C prior to their use. All drugs and investigational agents were tested over a range starting from a high concentration at or near the clinical Cmax and decreasing in half-log increments. If the clinical Cmax for an agent had not been determined, the highest concentration tested was 10 microM.
NCI60 Cell Culture. NCI60 cell lines were obtained from the NCI Developmental Therapeutics Program Tumor Repository. For each lot of cells, the Repository performed Applied Biosystems AmpFLSTR Identifiler testing with PCR amplification to confirm consistency with the published Identifier STR profile for each cell line. Cells were kept in continuous culture for no more than 20 passages. The optimal seeding densities for each of the cell lines at each time point assessed were determined prior to performing the concentration response studies. Briefly, the NCI60 human tumor lines were grown as monolayers in RPMI 1640 medium supplemented with 10% FBS and 2 mmol/L L-glutamine.
An additional 9 lines were from the NCI60 cell line panel including MDA-MB-231 breast carcinoma, MDA-MB-468 breast carcinoma, MCF7 breast carcinoma, Hs578T breast carcinoma, MALME-3M melanoma, SK-MEL-2 melanoma, SK-OV-3 ovarian carcinoma, DU-145 prostate carcinoma, PC-3 prostate carcinoma, all cell lines along with major genetic alterations are listed on Table 2. Pooled donor human umbilical vein endothelial cells (HUVEC, Lonza, cat. CC-2519) and human mesenchymal stem cells (hMSC, Lonza, cat. PT-2501) were purchased from Lonza (Walkersville, MD).
PDMR cell lines were grown in complete medium (DC medium): Dulbecco's modified Eagle's medium (DMEM)/F12 supplemented with 5% fetal bovine serum (FBS), 2 mM L-glutamine, 100 U/mL penicillin and 100 µg/ml streptomycin, 0.4 µg/ml hydrocortisone, 10 ng/ml epidermal growth factor (EGF) recombinant human protein, 24 µg/mL adenine, and 0.1 mg/mL primocin. During culture from frozen stock vials, PDMR cells were cultured in the same medium containing 10 µM Y-27632 (see Table 3). The PDCs were cultured in complete DMEM/F12 media without 10 microM Y-27632 dihydrochloride for at least two passages prior to the screen. The pooled donor HUVEC and hMSC were cultured in endothelial cell growth medium 2 (PromoCell, Heidelberg, Germany, cat. C-22011) and mesenchymal stem cell growth medium 2 (PromoCell, cat. C-28009), respectively. For all experiments, HUVEC and hMSC were used at passages </=5.
[…]
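Also: spheroids exposed to compounds for seven days.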
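For viability, T/C in this document: 100% = DMSO vehicle control viability.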

SMILES | viability, T/C (compound 0.0316 µM) | viability, T/C (compound 0.1 µM) | viability, T/C (compound 0.316 µM) | viability, T/C (compound 1 µM) | viability, T/C (compound 3.16 µM) | viability, T/C (compound 10 µM) | IC50 (curve of compound) | viability, T/C (compound 0.01 µM) | further results
C=CC(=O)N1CCN(c2nc(=O)n(-c3c(C)ccnc3C(C)C)c3nc(-c4c(O)cccc4F)c(F)cc23)C(C)C1 (configuration not stated) | 101% and 99.3% | 104% and 97% | 113% and 121% | 120% and 108% | 149% and 144% | 187% and 181% | > 10000 nM | – | –
C=CCn1c(=O)c2cnc(Nc3ccc(N4CCN(C)CC4)cc3)nc2n1-c1cccc(C(C)(C)O)n1 | 96.7% and 116% | 93.5% and 103% | 98.4% and 90.7% | 102% and 89.4% | 126% and 110% | 137% and 139% | > 10000 nM | – | –
CC(=O)c1c(C)c2cnc(Nc3ccc(N4CCNCC4)cn3)nc2n(C2CCCC2)c1=O | – | – | – | – | – | – | > 300 nM | – | viability, T/C (compound 0.000949 µM): 95.6% and 98.8%; viability, T/C (compound 0.003 µM): 104% and 90.5%; viability, T/C (compound 0.00949 µM): 102% and 101%; viability, T/C (compound 0.03 µM): 93.2% and 87.6%; viability, T/C (compound 0.0949 µM): 94.9% and 92%; viability, T/C (compound 0.3 µM): 100% and 84.8%
CC(C)(C)c1cnc(CSc2cnc(NC(=O)C3CCNCC3)s2)o1 | – | – | – | – | – | – | 88.2 nM and 152 nM | – | viability, T/C (compound 0.00949 µM): 110% and 99.4%; viability, T/C (compound 0.03 µM): 110% and 114%; viability, T/C (compound 0.0949 µM): 45.9% and 84.2%; viability, T/C (compound 0.3 µM): 0.46% and 0.83%; viability, T/C (compound 0.949 µM): 0.54% and 0.68%; viability, T/C (compound 3 µM): 0.61% and 0.65%
CC(C)NCC(C(=O)N1CCN(c2ncnc3c2C(C)CC3O)CC1)c1ccc(Cl)cc1 (configuration not stated) | – | 92.1% [middle of 13 runs] | 79.9% [middle of 13 runs] | 64.4% [middle of 13 runs] | 53.1% [middle of 13 runs] | 42.7% [middle of 13 runs] | – | – | –
CC(C)n1nc(-c2ccc3oc(N)nc3c2)c2c(N)ncnc21 | 59.4% and 57.2% | 39.2% and 46.5% | – | – | – | – | 51.9 nM and 70.1 nM | 70% and 77.5% | viability, T/C (compound 0.000316 µM): 97% and 95%; viability, T/C (compound 0.001 µM): 90.5% and 88.2%; viability, T/C (compound 0.00316 µM): 82.9% and 83.9%
CC1(C)CCC(CN2CCN(c3ccc(C(=O)NS(=O)(=O)c4ccc(NCC5CCOCC5)c([N+](=O)[O-])c4)c(Oc4cnc5[nH]ccc5c4)c3)CC2)=C(c2ccc(Cl)cc2)C1 | 86% and 96.1% | 83.1% and 79.8% | 74.2% and 75.6% | 80.1% and 87.6% | 97% and 94.6% | 78% and 68.1% | > 10000 nM | – | –
CCCS(=O)(=O)Nc1ccc(F)c(C(=O)c2c[nH]c3ncc(-c4ccc(Cl)cc4)cc23)c1F | 96.5% and 102% | 89.8% and 97.6% | 101% and 98.8% | 92.3% and 99% | 115% and 116% | 97.3% and 81.5% | > 10000 nM | – | –
CCN1CCN(Cc2ccc(Nc3ncc(F)c(-c4cc(F)c5nc(C)n(C(C)C)c5c4)n3)nc2)CC1 | 90.6% [middle of 13 runs] | 90.9% [middle of 13 runs] | 90.5% [middle of 13 runs] | 96.4% [middle of 13 runs] | – | – | – | 96.6% [middle of 13 runs] | IC50 (compound alone, run of 05/18/2021): > 1000 nM
COc1c(OCCCN2CCOCC2)ccc2c3n(c(=NC(=O)c4cnc(N)nc4)nc12)CCN3 | 53.5% and 58.3% | 36.1% and 37.8% | 17.5% and 18% | 2.36% and 3.37% | – | – | 39 nM and 51.2 nM | 71.2% and 75.9% | viability, T/C (compound 0.00316 µM): 94.9% and 84.9%
